Results on three molecules are retold here after publication PMC2935355 (PLoS ONE, 2010).

For this assay, the target named is T1, ClC-7 (Rattus norvegicus, UniProt P51799).
T1 construct: gene Clcn7; wt rat ClC-7 with C-terminal EGFP fusion; with Ostm1 (mouse)
T1 sequence (P51799 1-803): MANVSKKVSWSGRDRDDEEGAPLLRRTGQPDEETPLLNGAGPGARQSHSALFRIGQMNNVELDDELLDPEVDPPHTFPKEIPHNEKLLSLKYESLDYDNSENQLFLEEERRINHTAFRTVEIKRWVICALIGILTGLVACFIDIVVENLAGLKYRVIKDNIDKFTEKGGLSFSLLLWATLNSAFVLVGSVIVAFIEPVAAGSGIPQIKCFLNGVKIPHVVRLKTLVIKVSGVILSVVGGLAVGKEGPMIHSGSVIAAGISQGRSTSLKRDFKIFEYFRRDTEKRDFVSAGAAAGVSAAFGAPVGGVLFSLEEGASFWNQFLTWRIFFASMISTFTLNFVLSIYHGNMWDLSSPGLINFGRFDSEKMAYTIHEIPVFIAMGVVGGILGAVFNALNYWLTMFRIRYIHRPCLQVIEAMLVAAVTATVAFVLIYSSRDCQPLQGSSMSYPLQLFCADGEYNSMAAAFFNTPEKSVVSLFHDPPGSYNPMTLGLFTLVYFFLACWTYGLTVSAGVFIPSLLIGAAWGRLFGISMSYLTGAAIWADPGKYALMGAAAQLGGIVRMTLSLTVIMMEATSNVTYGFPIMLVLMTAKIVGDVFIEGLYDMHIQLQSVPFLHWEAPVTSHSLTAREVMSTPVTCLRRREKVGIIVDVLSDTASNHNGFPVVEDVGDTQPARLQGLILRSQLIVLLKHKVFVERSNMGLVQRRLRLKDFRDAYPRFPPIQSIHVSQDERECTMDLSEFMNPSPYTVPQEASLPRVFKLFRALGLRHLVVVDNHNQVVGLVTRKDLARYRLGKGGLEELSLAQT
T1 sequence (Q8BGT0 35-338 partner): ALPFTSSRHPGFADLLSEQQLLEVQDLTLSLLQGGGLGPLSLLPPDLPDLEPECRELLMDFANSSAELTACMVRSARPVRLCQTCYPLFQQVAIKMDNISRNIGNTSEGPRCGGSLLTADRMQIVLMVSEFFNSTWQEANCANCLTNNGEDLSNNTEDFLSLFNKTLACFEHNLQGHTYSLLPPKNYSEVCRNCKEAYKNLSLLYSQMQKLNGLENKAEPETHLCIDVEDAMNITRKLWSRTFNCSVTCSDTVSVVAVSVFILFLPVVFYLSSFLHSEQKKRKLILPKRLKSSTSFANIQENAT
The experiment in a line: SSM-based electrophysiology on lysosomal membrane fraction of CHO cells, […] NaCl jump. Type of assay: biochemical.

Where two headings read alike, the source gives them in different places.

Turning to `O=S(=O)(O)c1cc(N=C=S)ccc1C=Cc1ccc(N=C=S)cc1S(=O)(=O)O` [compound 1, 4,4′-diisothiocyanatostilbene-2,2′-disulfonic acid], the IC50 (read-out: IC50) was 39 ± 3.8 µM. Regarding `O=C(O)c1cc([N+](=O)[O-])ccc1NCCCc1ccccc1` [compound 3, 5-nitro-2-(3-phenylpropylamino)benzoic acid], half-maximal inhibition (IC50) was put at 156 ± 7.8 µM.

Turning to NS5818 [compound 2], the IC50 (read-out: IC50) is 52 ± 8 µM.
